From patent publication US20250066290A1, “DHODH INHIBITORS CONTAINING A CARBOXYLIC ACID BIOISOSTERE” (IMMUNIC AG, priority 2021, published 2025)
Read-outs that look alike come from different tables or passages of the source.

Tests used:
[1] = target: N-terminally truncated recombinant hDHODH enzyme (Homo sapiens, UniProt Q02127); assay: biochemical; format: biochemical
Protocol: Briefly, the hDHODH concentration was adjusted in a way that an average slope of approximately 0.2 AU/min served as the positive control (e.g. without inhibitor). The standard assay mixture contained 60 μM 2,6-dichloroindophenol, 50 μM decylubiquinone and 100 μM dihydroorotate. The hDHODH enzyme with or without at least six different concentrations of the compounds was added and measurements were performed in 50 mM TrisHCl, 150 mM KCl and 0.1% Triton X-100 at pH 8.0 and at 30° C. The reaction was started by adding dihydroorotate and measuring the absorption at 600 nm for 2 min. For the determination of the IC50 values, each data point was recorded in triplicate. […].

[2] = system: SARS-CoV-2; assay: SARS-CoV-2 viral replication (YFP) assay; format: cell-based; settings: Severe acute respiratory syndrome coronavirus 2, read-out: EC50 range
[3] = human DHODH assay, read-out: IC50 range

Chain of N-terminally truncated recombinant hDHODH enzyme (Q02127 whole entry, looked up, the tested form may be a part): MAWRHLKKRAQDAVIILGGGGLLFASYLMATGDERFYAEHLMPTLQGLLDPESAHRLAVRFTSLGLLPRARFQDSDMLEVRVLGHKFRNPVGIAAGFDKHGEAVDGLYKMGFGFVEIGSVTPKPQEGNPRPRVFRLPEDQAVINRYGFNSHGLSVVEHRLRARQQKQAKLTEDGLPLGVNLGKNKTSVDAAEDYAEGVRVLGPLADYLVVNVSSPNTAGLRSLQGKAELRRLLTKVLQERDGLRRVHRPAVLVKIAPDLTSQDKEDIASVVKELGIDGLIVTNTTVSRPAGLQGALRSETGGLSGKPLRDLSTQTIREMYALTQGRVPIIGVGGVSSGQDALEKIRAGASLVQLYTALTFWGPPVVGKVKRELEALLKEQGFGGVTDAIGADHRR

Compound: [2H]C([2H])([2H])C([2H])([2H])Oc1cccc(-c2cc(F)c(NC(=O)C3=C(C(=O)NS(C)(=O)=O)CCC3)c(F)c2)c1 [1/5]
- IC50 [1, 3]: < 100 nM
- EC50 [2]: < 10000 nM

Compound: [2H]C([2H])([2H])Oc1cccc(-c2c(F)c(F)c(NC(=O)c3cc(C)sc3C(=O)NOC)c(F)c2F)c1 [Example 17-1, N2-Methoxy-5-methyl-N3-(2,3,5,6-tetrafluoro-3′-(methoxy-d3)-[1,1′-biphenyl]-4-yl)thiophene-2,3-dicarboxamide]
- IC50 [1]: < 100 nM
- EC50 [2]: < 1000 nM

Compound: [2H]C([2H])([2H])ONC(=O)c1cscc1C(=O)Nc1c(F)c(F)c(-c2cccc(OC([2H])([2H])[2H])c2)c(F)c1F [4/31]
- IC50 [1, 3]: < 100 nM
- EC50 [2]: < 1000 nM

Compound: [2H]c1c([2H])c(F)c([2H])c(-c2c(F)c(F)c(NC(=O)C3=C(C(=O)NOC([2H])([2H])[2H])COC3)c(F)c2F)c1[2H] [5/2]
- IC50 [1]: 100 to 1000 nM
- EC50 [2]: < 1000 nM

Compound: [2H]C([2H])([2H])ONC(=O)c1cscc1C(=O)Nc1c(F)c(F)c(-c2ccccc2OC([2H])([2H])[2H])c(F)c1F [4/32]
- IC50 [1, 3]: < 100 nM
- EC50 [2]: < 1000 nM

Compound: [2H]C([2H])([2H])Oc1cccc(-c2c(F)c(F)c(NC(=O)C3=C(C(=O)NOCCO)CSC3)c(F)c2F)c1 [6/2]
- IC50 [1, 3]: < 100 nM
- EC50 [2]: < 10000 nM

Compound: [2H]C([2H])([2H])Oc1cccc(-c2cc(F)c(NC(=O)C3=C(C(=O)NS(C)(=N)=O)CCC3)c(F)c2)c1 (stereo not shown) [1/4]
- IC50 [1, 3]: < 100 nM
- EC50 [2]: > 50000 nM

Compound: [2H]C([2H])([2H])Oc1ccccc1-c1c(F)c(F)c(NC(=O)C2=C(C(=O)NOCCO)CSC2)c(F)c1F [6/3]
- IC50 [1, 3]: < 100 nM
- EC50 [2]: < 1000 nM

Compound: [2H]C([2H])([2H])Oc1cccc(-c2c(F)c(F)c(NC(=O)c3ccsc3C(=O)NOCCO)c(F)c2F)c1 [9/7]
- IC50 [1, 3]: < 100 nM
- EC50 [2]: < 1000 nM

Compound: [2H]C([2H])([2H])Oc1cccc(-c2cc(F)c(NC(=O)C3=C(C(=O)NS(=O)(=O)N(C)C)CCC3)c(F)c2)c1 [2/2]
- IC50 [1, 3]: > 10000 nM
- EC50 [2]: 10000 to 25000 nM

Compound: [2H]C([2H])([2H])Oc1cccc(-c2ccc(NC(=O)C3=C(C(=O)NOC)CCC3)c3ccccc23)c1 [4/12]
- IC50 [1, 3]: > 10000 nM
- EC50 [2]: < 10000 nM

Compound: [2H]C([2H])([2H])Oc1cccc(-c2cc(F)c(NC(=O)C3=C(/C(N)=N/O)CCC3)c(F)c2)c1 [Example 3-1, (Z)—N-(3,5-Difluoro-3′-(methoxy-d3)-[1,1′-biphenyl]-4-yl)-2-(N-hydroxycarbamimid-oyl)cyclopent-1-ene-1-carboxamide]
- IC50 [1]: > 10000 nM
- EC50 [2]: < 10000 nM

Compound: [2H]C([2H])([2H])Oc1cccc(-c2cc(F)c(NC(=O)C3=C(C(=O)NS(=O)(=O)C4(C)CC4)CCC3)c(F)c2)c1 [1/2]
- IC50 [1, 3]: > 10000 nM
- EC50 [2]: 10000 to 25000 nM

Compound: [2H]C([2H])([2H])Oc1cccc(-c2cc(F)c(N(C)C(=O)C3=C(C(=O)NOC)CCC3)c(F)c2)c1 [Example 13, N1-(3,5-Difluoro-3′-(methoxy-d3)-[1,1′-biphenyl]-4-yl)-N2-methoxy-N1-methylcyclopent-1-ene-1,2-dicarboxamide]
- IC50 [1]: > 10000 nM
- EC50 [2]: 10000 to 25000 nM

Compound: [2H]C([2H])([2H])Oc1cccc(-c2c(F)c(F)c(NC(=O)c3cocc3C(=O)NOC)c(F)c2F)c1 [Example 16/1]
- IC50 [1, 3]: < 100 nM
- EC50 [2]: < 1000 nM

Compound: [2H]C([2H])([2H])Oc1ccccc1-c1c(F)c(F)c(NC(=O)C2=C(C(=O)NS(N)(=O)=O)CCC2)c(F)c1F [2/4]
- IC50 [1, 3]: < 100 nM
- EC50 [2]: < 10000 nM

Compound: [2H]C([2H])([2H])ONC(=O)C1=C(C(=O)Nc2c(F)c(F)c(-c3cccc(OC([2H])([2H])[2H])c3)c(F)c2F)CCC1 [4/22]
- IC50 [1, 3]: < 100 nM
- EC50 [2]: < 1000 nM

Compound: [2H]C([2H])([2H])Oc1cccc(-c2ccc(NC(=O)C3=C(C(=O)NOC)CCC3)c3c2CCC3)c1 [Example 8/1]
- IC50 [1, 3]: > 10000 nM
- EC50 [2]: < 10000 nM

Compound: [2H]C([2H])([2H])Oc1cccc(-c2ccc(NC(=O)c3ccsc3C(=O)NOC)c(F)c2F)c1 [9/4]
- IC50 [1, 3]: < 100 nM
- EC50 [2]: < 1000 nM

Compound: [2H]C([2H])([2H])Oc1cccc(-c2cc(F)c(NC(=O)c3sccc3C(=O)NOC)c(F)c2)c1 [Example 10, N^2-(3,5-Difluoro-3′-(methoxy-d3)-[1,1′-biphenyl]-4-yl)-N^3-methoxythiophene-2,3-dicarboxamide]
- IC50 [1]: < 100 nM
- EC50 [2]: < 1000 nM

Compound: [2H]C([2H])([2H])Oc1cccc(-c2cc(F)c(NC(=O)c3ccsc3C(=O)NOC)c(F)c2F)c1 [9/5]
- IC50 [1, 3]: < 100 nM
- EC50 [2]: < 1000 nM

Compound: [2H]C([2H])([2H])Oc1cccc(-c2cc(F)c(NC(=O)C3=C(C(=O)NOCCO)CCC3)c(F)c2)c1 [Example 4/1]
- IC50 [1]: 1000 to 10000 nM
- EC50 [2]: < 10000 nM

Compound: [2H]C([2H])([2H])Oc1cccc(-c2c(F)c(F)c(NC(=O)C3=C(C(=O)NOC)CSC3)c(F)c2F)c1 [Example 6/1]
- IC50 [1, 3]: < 100 nM
- EC50 [2]: < 1000 nM

Compound: [2H]C([2H])([2H])Oc1cccc(-c2c(F)c(F)c(NC(=O)C3=C(c4nn[nH]n4)COC3)c(F)c2F)c1 [Example 3/1]
- IC50 [1]: 1000 to 10000 nM
- EC50 [2]: 25000 to 50000 nM

Compound: [2H]C([2H])([2H])Oc1cccc(-c2c(F)cc(NC(=O)c3ccsc3C(=O)NOC)cc2F)c1 [9/3]
- IC50 [1, 3]: < 100 nM
- EC50 [2]: < 1000 nM

Compound: [2H]C([2H])([2H])Oc1cccc(-c2cc(F)c(NC(=O)C3=C(C(=O)NOC)CC(F)(F)C3)c(F)c2)c1 [4/25]
- IC50 [1, 3]: < 100 nM
- EC50 [2]: < 1000 nM

Compound: [2H]C([2H])([2H])Oc1cccc(-c2c(F)c(F)c(NC(=O)c3occc3C(=O)NOC)c(F)c2F)c1 [9/8]
- IC50 [1, 3]: < 100 nM
- EC50 [2]: < 1000 nM

Compound: [2H]C([2H])([2H])Oc1cccc(-c2c(F)c(F)c(NC(=O)C3=C(C(=O)NOCCO)COC3)c(F)c2F)c1 [5/6]
- IC50 [1]: 100 to 1000 nM
- EC50 [2]: < 10000 nM

Compound: [2H]C([2H])([2H])Oc1cccc(-c2cc(F)c(NC(=O)C3=C(C(=O)NOC)CCC3)c(C#N)c2)c1 [8/3]
- IC50 [1]: 1000 to 10000 nM
- EC50 [2]: < 10000 nM

Compound: [2H]C([2H])([2H])Oc1cccc(-c2c(F)c(F)c(NC(=O)c3cscc3C(=O)NS(N)(=O)=O)c(F)c2F)c1 [2/6]
- IC50 [1, 3]: < 100 nM
- EC50 [2]: < 10000 nM

Compound: [2H]C([2H])([2H])Oc1cccc(-c2c(F)c(F)c(NC(=O)c3ccoc3C(=O)NOC)c(F)c2F)c1 [Example 10/1]
- IC50 [1, 3]: < 100 nM
- EC50 [2]: < 1000 nM

Compound: [2H]C([2H])([2H])Oc1cccc(-c2cc(F)c(NC(=O)C3=C(c4noc(=O)[nH]4)CCC3)c(F)c2)c1 [Example 3-2, N-(3,5-Difluoro-3′-(methoxy-d3)-[1,1′-biphenyl]-4-yl)-2-(5-oxo-4,5-dihydro-1,2,4-oxadiazol-3-yl)cyclopent-1-ene-1-carboxamide]
- IC50 [1, 3]: > 10000 nM
- EC50 [2]: < 10000 nM

Compound: [2H]C([2H])([2H])Oc1cccc(-c2ccc(NC(=O)C3=C(C(=O)NOC)CCC3)c3cnccc23)c1 [4/11]
- IC50 [1, 3]: > 10000 nM
- EC50 [2]: 25000 to 50000 nM

Compound: [2H]C([2H])([2H])Oc1cccc(-c2cnc(NC(=O)C3=C(C(=O)NOC)CCC3)c(F)c2)c1 [Example 8, N^1-(3-Fluoro-5-(3-(methoxy-d3)phenyl)pyridin-2-yl)-N^2-methoxycyclopent-1-ene-1,2-dicarboxamide]
- IC50 [1]: 1000 to 10000 nM
- EC50 [2]: > 50000 nM

Compound: [2H]C([2H])([2H])Oc1cccc(-c2cc(F)c(NC(=O)C3=C(C(=O)NOC)COC3)c(F)c2)c1 [Example 5, N^3-(3,5-Difluoro-3′-(methoxy-d3)-[1,1′-biphenyl]-4-yl)-N^4-methoxy-2,5-dihydrofuran-3,4-dicarboxamide]
- IC50 [1]: 100 to 1000 nM
- EC50 [2]: < 10000 nM

Compound: [2H]C([2H])([2H])Oc1cccc(-c2c(F)c(F)c(NC(=O)C3=C(C(=O)NOCCO)CC(F)(F)C3)c(F)c2F)c1 [4/29]
- IC50 [1, 3]: < 100 nM
- EC50 [2]: < 1000 nM

Compound: [2H]C([2H])([2H])Oc1cccc(-c2cc(F)c(NC(=O)C3=C(C(=O)NOCC)CCC3)c(F)c2)c1 [4/9]
- IC50 [1]: 1000 to 10000 nM
- EC50 [2]: < 10000 nM

Compound: [2H]C([2H])([2H])Oc1cccc(-c2cc(F)c(NC(=O)C3=C(C(=O)NS(=O)(=O)NC)CCC3)c(F)c2)c1 [2/3]
- IC50 [1]: 100 to 1000 nM
- EC50 [2]: 10000 to 25000 nM

Compound: [2H]c1c([2H])c([2H])c(-c2c(F)c(F)c(NC(=O)C3=C(C(=O)NOC([2H])([2H])[2H])COC3)c(F)c2F)c([2H])c1[2H] [Example 5/1]
- IC50 [1, 3]: < 100 nM
- EC50 [2]: < 1000 nM

Compound: [2H]C([2H])([2H])ONC(=O)c1sccc1C(=O)Nc1c(F)cc(-c2cccc(OC([2H])([2H])[2H])c2)cc1F [9/2]
- IC50 [1, 3]: < 100 nM
- EC50 [2]: < 1000 nM

Compound: [2H]C([2H])([2H])Oc1cccc(-c2c(F)c(F)c(NC(=O)C3=C(C(=O)NS(C)(=O)=O)CC(F)(F)C3)c(F)c2F)c1 [1/12]
- IC50 [1, 3]: < 100 nM
- EC50 [2]: < 1000 nM

Compound: [2H]C([2H])([2H])Oc1ccccc1-c1c(F)c(F)c(NC(=O)C2=C(C(=O)NOCCO)CCC2)c(F)c1F [4/27]
- IC50 [1]: 100 to 1000 nM
- EC50 [2]: < 1000 nM

Compound: [2H]C([2H])([2H])Oc1cccc(-c2c(F)c(F)c(NC(=O)C3=C(C(=O)NS(N)(=O)=O)CC(F)(F)C3)c(F)c2F)c1 [2/5]
- IC50 [1, 3]: < 100 nM
- EC50 [2]: < 1000 nM

Compound: [2H]C([2H])([2H])Oc1cccc(-c2cc(F)c(NC(=O)C3=C(C(=O)NS(=O)(=O)C(F)F)CCC3)c(F)c2)c1 [1/3]
- IC50 [1]: 1000 to 10000 nM
- EC50 [2]: 25000 to 50000 nM

Compound: CONC(=O)C1=C(C(=O)Nc2c(F)cc(-c3cccc4c3OCO4)cc2F)CCC1 [4/13]
- IC50 [1]: 1000 to 10000 nM
- EC50 [2]: < 10000 nM

Compound: [2H]C([2H])([2H])Oc1cccc(-c2cc(F)c(NC(=O)C3=C(C(=O)NOC)CCC3)c(OC([2H])([2H])[2H])c2)c1 [8/2]
- IC50 [1]: 1000 to 10000 nM
- EC50 [2]: < 10000 nM

Compound: [2H]C([2H])([2H])Oc1cccc(-c2cc(F)c(NC(=O)C3=C(C(=O)NOCCF)CCC3)c(F)c2)c1 [4/2]
- IC50 [1]: 100 to 1000 nM
- EC50 [2]: < 10000 nM
